Results: patent publication US20130324543A1, “REVERSAL OF HIGH BREAST CANCER RISK IN MAMMALS EXPOSED TO ESTROGENIC CHEMICALS IN UTERO BY ADULT EXPOSURE TO HDAC AND DNMT INHIBITORS” (Georgetown University, priority 2012, published 2013)
“Also recorded” adds a separate entry of the source.

Key:
[1] = tested on: DNMT1; assay: DNMT1 mRNA expression (qRT-PCR) in mouse mammary glands and tumors; type: in vivo; conditions: in utero exposure vs control mice
Text: Total RNA was extracted using an RNeasy lipid mini kit (Qiagen, CA), according to manufacturer's instructions. One […] of total RNA per sample was used as a template for oligo-dT primed cDNA synthesis with a Supterscript reverse transcriptase, using Taqman Reverse Transcription kit (Applied Biosystems, CA). The cDNA samples served then as templates for quantitative real time PCR analysis with specific primers for the target gene using QuantiTect SYBR green PCR kit (Qiagen Inc., Valencia, Calif.) and an ABI Prism 7900 Sequence Detection System. Each sample was run in triplicate on a 384-well plate, and the qPCR run was repeated twice. The Ct values were averaged from the triplicates for each sample. To normalize the target gene expression the ratio to control RNA was calculated, i.e. the averages of the Ct triplicates from the Dnmt1 gene were divided by the average of the triplicates from the 18S gene. To determine the fold change of the target gene expression the results are presented as 2^ΔCt, where ΔCt=CT^target−Ct^18S.
The primer sequences for m18S rRNA were as previously published by Wang et al. (27).
Mammary tumor latency was compared with the final tumor burden in utero EE2 and GEN exposed mice to control mice, and in utero EE2 and GEN exposed mice to control mice exposed to HDAC+DNMT inhibitors separately; analysis was done using one-way ANOVA. Cumulative tumor burden during 16 weeks of tumor monitoring in the three groups, separately in those mice not given HDAC+DNMT inhibitors and those treated with the epigenetic drugs, was analysed using repeated measures one-way ANOVA. Log rank analysis was performed to compare mammary tumor incidence in the control and in utero EE2 and GEN exposed mice, again separately in those mice not given HDAC+DNMT inhibitors and those treated with the epigenetic drugs. Data for changes in DNMT1 expression among the groups in the mammary glands and tumors were assessed using two-way ANOVA, followed by Fisher LSD test

[2] = Litter size and pup weight in F1-F3 rat generations; type: in vivo, Sprague-Dawley rats; conditions: diet of the F0 dams; any of the three generations
Experimental: Pregnant dams were weighed once a week to monitor changes in weight gain. The birth weight of pups and number of pups per litter were recorded. To avoid litter-effect, pups were crossfostered 1-2 days after dams gave birth. Pups from 2-4 dams were pooled and housed in a litter of 8-10 pups per nursing dam (which had the same dietary/hormonal exposure during pregnancy as the pups' mothers). All pups were weaned on postnatal day 21.

[3] = tested on: miRNAs; assay: miRNA expression in adult mammary glands of in utero exposed rats; type: in vivo
Experimental: Since several miRNAs are known to be suppressed by E2 in MCF-7 human breast cancer cells (Maillot et al. Cancer Res 2009), we determined whether persistent changes in miRNA expression may be seen in the adult mammary glands of rats exposed to E2 in utero. miRNAs were measured using applied Biosystems TaqManR Array Rodent MicroRNA.

[4] = tested on: mammary tumors; assay: MPA/DMBA mammary tumorigenesis in mice exposed in utero to EE2, GEN or BPA (Example 5); type: in vivo, C57BL/6 mice; conditions: mouse, in vivo
Text: (§1) Additions to the basic diet were as follows: 1) cornstarch [control]; 2) EE2 0.1 ppm; 3) BPA 0.155 ppm; 4) GEN 500 ppm.

[5] = tested on: mammary gland; assay: Mammary gland morphology of in utero exposed mice (whole mounts); type: in vivo, C57BL/6 mice; conditions: female mice, PND 27
Experimental: One of the two #4 abdominal mammary glands was dissected and fixed in Carnoy's fixative and processed into whole mounts as previously described (8). The other #4 abdominal gland was snap frozen in liquid nitrogen and stored in −80° C. for future analysis. One of the two thoracic #2-3 mammary glands was fixed in neutral buffered 10% formalin, embedded in paraffin and processed for histology using routine methods, and the other was snap frozen in liquid nitrogen, also stored in −80° C. for future analysis. Uterus was dissected, and one horn with the ovary and vagina attached was fixed in 10% formalin, embedded in paraffin and processed for histology, and the other horn and one ovary were frozen in liquid nitrogen and stored in −80° C.
To assess possible changes in mammary gland morphology, whole amounts of the 4th abdominal glands obtained on PND 27 were processed as previously described (4, 72). The total number of terminal end buds (TEBs) was counted. Identification of TEBs was based on the guidelines established by Russo and Russo (64). The total area (in pixels) of epithelium of the peripubertal (PND 27) mammary glands was analyzed by using ImageJ software (available through NIH web site) on digitized pictures of mammary whole mounts with ducts manually intensified black against white background (shown as an insert in FIG. 16). Ductal elongation (mammary epithelial outgrowth) on PND 50 was measured as the growth in millimeters from the end of the lymph node to the end of the epithelial tree. All the analyses were done blindly using an Olympus dissecting microscope.

[6] = tested on: mammary gland; assay: Number of terminal end buds (TEBs) in mammary whole mounts of F1-F3 rat offspring; type: in vivo, Sprague-Dawley rats; conditions: mean±s.e.m.
Experimental: Whole mounts (n=5-6 per group and age) were examined under the microscope and evaluated as described before (28) to assess the number of terminal end buds (TEBs). Results were analyzed by t-test (or Mann-Whitney Rank Sum test) or one-ANOVA (when comparing outcross groups in F2 generation). Where appropriate, between groups comparisons after ANOVA were done by Holm-Sidak multi-comparison procedure.

[7] = Body weight and growth of in utero exposed pups; type: in vivo, C57BL/6 mice; conditions: mouse, in vivo
Text: as §1

[8] = tested on: Dnmt1; assay: Dnmt mRNA expression (qRT-PCR) in mammary glands of F1-F3 rat offspring; type: in vivo, Sprague-Dawley rats; conditions: for levels of Dnmt1 mRNA in mammary gland: PND50
Text: Total mammary RNA (n=3-6/group) was used as a template for random primed cDNA synthesis (TaqMan MultiScribe Reverse Transcriptase and RT-PCR Reagents, AppliedBiosystems, Roche, N.J., USA). cDNA samples were then used as templates for quantitative RT PCR analysis with previously described specific primers for the target gene, rat Dnmt1 (124) using QuantiTect SYBR green PCR kit (Qiagen Inc., Valencia, Calif.). Each sample was normalized to the reference gene 18S rRNA (27). Two hundred ng of total RNA per sample (n=3-6) was used as a template for random primed cDNA synthesis with a recombinant Moloney murine leukemia virus reverse transcriptase (TaqMan MultiScribe Reverse Transcriptase and RT-PCR Reagents, AppliedBiosystems, Roche, N.J., USA), according to manufacturer's instructions. An RT enzyme-minus control reaction was also included. The cDNA samples were then used as templates for quantitative real time PCR analysis with previously described specific primers for the target gene, rat Dnmt1(29) using QuantiTect SYBR green PCR kit (Qiagen Inc., Valencia, Calif.) and an ABI Prism 7900 Sequence Detection System. Each sample was run in triplicate, and the qPCR run was repeated twice. Absolute gene expression levels were determined using Applied Biosystems' SDS2.3 software and the standard curve method. Concentration of each sample was normalized to the reference gene 18S rRNA (30), and averages of the three runs are shown. Differences in Dnmt1 mRNA expression levels were tested by two-way ANOVA (after log-transformation), followed by Holm-Sidak multicomparison procedure.

[9] = Con x EE2 outcross (F2 generation)
[10] = EE2 x Con outcross (F2 generation)
[11] = maternal EE2 diet 0.1 ppm, F1 generation
[12] = maternal EE2 diet, F2 generation
[13] = maternal EE2 diet, F3 generation

## C#C[C@]1(O)CC[C@H]2[C@@H]3CCc4cc(O)ccc4[C@H]3CC[C@@]21C [EE2, ethinyl estradiol]
[1]
  DNMT1 expression in mammary tumors: significantly lower
  expression of DNMT1 in mammary glands: an increase in the expression of DNMT1; also recorded: persistent up-regulation
[2]
  litter size or pups weight: did not affect
[3]; mammary glands of rats exposed in utero
  expression of miR-26a, miR-101, miR-148, miR-152, miR-194, miR-26a/b: suppressed
[3]; maternal exposure
  expression of several miRNAs in the mammary gland: permanent down-regulation
[4]
  mammary tumorigenesis (onset of tumor growth and cumulative tumor burden): Enhanced mammary tumorigenesis
[5]
  total epithelial area of the glands: significantly increased
[6]; [9]
  Number of TEBs PND 21: 19.4 ± 1.5
  Number of TEBs PND 50: 11.0 ± 1.2
[6]; [10]
  Number of TEBs PND 21: 32.7 ± 3.6
  Number of TEBs PND 50: 22.8 ± 1.6
[6]; [11]
  Number of TEBs PND 21: 25.3 ± 1.3
  Number of TEBs PND 50: 32.5 ± 2.3
[6]; [12]
  Number of TEBs PND 21: 30.8 ± 1.9
  Number of TEBs PND 50: 22.2 ± 3.8
[6]; [13]
  Number of TEBs PND 21: 33.0 ± 2.1
  Number of TEBs PND 50: 28.7 ± 3.4
[7]
  birthweight, or postnatal weight development: did not alter
[8]; F1 generation
  levels of Dnmt1 mRNA in mammary gland: increased
[8]; F2 and F3 generation offspring
  levels of Dnmt1 mRNA in mammary gland: this increase persisted
[8]; in utero exposed rats, not shown
  DNMT3a or 3b expression in the mammary glands: Neither DNMT3a or 3b were altered
